Results from US7354925B2, “Alpha aryl or heteroaryl methyl beta piperidino propanamide compounds as ORL1-receptor antagonists” (Pfizer Inc., priority 2004, dated 2008).
Counter-ions that a name gives are not always drawn.

Columns and labels:
[1] = biological target: T1, human ORL1 receptor (Homo sapiens, UniProt P41146); experiment: ORL1-receptor binding assay; conditions: [3H]nociceptin, human ORL1 receptor transfected HEK-293 cell membranes; read-out: Ki value with regard to binding affinity for the ORL1 receptor
T1 construct: purchased PerkinElmer; host or cells: HEK-293 (transfected), membranes
T1 sequence (P41146 whole entry): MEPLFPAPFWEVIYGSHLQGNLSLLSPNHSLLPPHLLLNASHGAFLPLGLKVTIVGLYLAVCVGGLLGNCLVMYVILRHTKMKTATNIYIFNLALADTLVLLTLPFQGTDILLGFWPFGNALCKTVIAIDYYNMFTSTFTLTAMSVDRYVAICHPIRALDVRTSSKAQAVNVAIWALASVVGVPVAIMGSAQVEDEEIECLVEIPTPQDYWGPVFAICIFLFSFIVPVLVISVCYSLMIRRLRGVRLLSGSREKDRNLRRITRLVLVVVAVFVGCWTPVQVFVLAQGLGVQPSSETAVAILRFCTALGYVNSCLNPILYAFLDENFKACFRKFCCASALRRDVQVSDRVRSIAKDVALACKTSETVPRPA
Description: The human ORL1 receptor transfected HEK-293 cell membranes (PerkinElmer) were incubated for 45 min at room temperature with 0.4 nM [^3H]nociceptin, 1.0 mg of wheat germ agglutinin (WGA)-coated SPA beads and various concentrations of test compounds in a final volume of 200 μL of 50 mM HEPES buffer pH 7.4 containing 10 mM MgCl2 and 1 mM EDTA. Non-specific binding (NSB) was determined by the addition of 1 μM unlabeled nociceptin. After the reaction, the assay plate was centrifuged at 1,000 rpm for 1 min and then the radioactivity was measured by WALLAC 1450 MicroBeta Trilux.

[2] = biological target: T2, HERG type potassium channel (Homo sapiens, UniProt Q12809); format: binding
T2 construct: expressed in transfected cells; host or cells: HEK-293 cells expressing HERG; membrane homogenate
T2 sequence (Q12809 whole entry): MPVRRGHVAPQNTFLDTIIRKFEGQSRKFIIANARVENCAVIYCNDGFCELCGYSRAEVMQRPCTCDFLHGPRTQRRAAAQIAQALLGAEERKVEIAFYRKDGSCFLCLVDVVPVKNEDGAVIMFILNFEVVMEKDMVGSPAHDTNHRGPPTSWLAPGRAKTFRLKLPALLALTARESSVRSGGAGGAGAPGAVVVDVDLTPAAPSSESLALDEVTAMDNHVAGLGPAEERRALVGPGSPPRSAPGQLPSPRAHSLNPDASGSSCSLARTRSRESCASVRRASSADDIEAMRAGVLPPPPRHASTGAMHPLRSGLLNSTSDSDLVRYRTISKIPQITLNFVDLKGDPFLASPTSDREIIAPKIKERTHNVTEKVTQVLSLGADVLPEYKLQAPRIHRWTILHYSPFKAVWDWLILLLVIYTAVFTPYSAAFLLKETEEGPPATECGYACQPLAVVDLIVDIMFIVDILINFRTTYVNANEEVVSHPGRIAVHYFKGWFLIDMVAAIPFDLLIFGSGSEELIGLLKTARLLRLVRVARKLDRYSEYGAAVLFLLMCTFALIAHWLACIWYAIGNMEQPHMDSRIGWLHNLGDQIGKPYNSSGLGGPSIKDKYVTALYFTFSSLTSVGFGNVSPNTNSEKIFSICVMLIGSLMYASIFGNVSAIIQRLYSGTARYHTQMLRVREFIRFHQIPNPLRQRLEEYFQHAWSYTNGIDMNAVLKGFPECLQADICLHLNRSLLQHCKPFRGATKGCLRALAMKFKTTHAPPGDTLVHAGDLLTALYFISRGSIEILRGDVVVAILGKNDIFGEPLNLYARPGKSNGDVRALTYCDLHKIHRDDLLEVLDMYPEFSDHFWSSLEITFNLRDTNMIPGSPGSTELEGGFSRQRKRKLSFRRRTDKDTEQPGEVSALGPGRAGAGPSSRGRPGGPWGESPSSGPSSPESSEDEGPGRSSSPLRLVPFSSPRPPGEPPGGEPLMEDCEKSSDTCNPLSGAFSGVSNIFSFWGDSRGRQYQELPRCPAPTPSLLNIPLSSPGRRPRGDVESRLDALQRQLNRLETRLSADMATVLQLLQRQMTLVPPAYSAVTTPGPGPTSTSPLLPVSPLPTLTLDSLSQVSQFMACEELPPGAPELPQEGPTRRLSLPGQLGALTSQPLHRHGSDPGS
Description: Cell paste of HEK-293 cells expressing the HERG product can be suspended in 10-fold volume of 50 mM Tris buffer adjusted at pH 7.5 at 25° C. with 2 M HCl containing 1 mM MgCl2, 10 mM KCl. The cells were homogenized using a Polytron homogenizer (at the maximum power for 20 seconds) and centrifuged at 48,000 g for 20 min at 4° C. The pellet was resuspended, homogenized and centrifuged once more in the same manner. The resultant supernatant was discarded and the final pellet was resuspended (10-fold volume of 50 mM Tris buffer) and homogenized at the maximum power for 20 sec. The membrane homogenate was aliquoted and stored at −80° C. until use. Analiquot was used for protein concentration determination using a Protein Assay Rapid Kit and ARVO SX plate reader (Wallac). […] Saturation was determined by incubating 20 μL of [^3H]-dofetilide and 160 μl of membrane homogenates (20-30 μg protein per well) for 60 min at room temperature in the absence or presence of 10 μM dofetilide at final concentrations (20 μL) for total or nonspecific binding, respectively. […] Receptor-bound radioactivity was quantified by liquid scintillation counting using Packard LS counter.
For the competition assay, compounds were diluted in 96 well polypropylene plates as 4-point dilutions in semi-log format. […] Receptor-bound radio activity was quantified by counting Wallac MicroBeta plate counter.

SMILES | Ki [1] [nM] | activity in the dofetilide binding assay [2]
CN(C)C(=O)C(Cc1cscn1)CN1CCC2(CC1)OCc1ccc(F)cc12 (single isomer, unassigned; (-)) [Example 92, (−)-3-(6-FLUORO-1′H,3H-SPIRO[2-BENZOFURAN-1,4′-PIPERIDIN]-1′-YL)-N,N-DIMETHYL-2-(1,3-THIAZOL-4-YLMETHYL)P[…], CITRATE] | 5 | –
CN(C)C(=O)C(CN1CCC2(CC1)OCc1ccc(F)cc12)Cn1cccn1 (single isomer, unassigned; (-)) [Example 102, (−)-3-(6-FLUORO-1′H,3H-SPIRO[2-BENZOFURAN-1,4′-PIPERIDIN]-1′-YL)-N,N-DIMETHYL-2-(1H-PYRAZOL-1-YLMETHYL)P[…], CITRATE] | 12 | –
CN1C(=O)C(CN2CCC3(CCc4ccccc43)CC2)Cc2ccccc21 (stereo not drawn) [Compound (i)] | – | potent activity
